According to publication PMC6934184, “Selective DNA-PKcs inhibition extends the therapeutic index of localized radiotherapy and chemotherapy” (The Journal of Clinical Investigation, 2019):

Target: T1, KIT V559D T670I (Homo sapiens, UniProt P10721, T670I/V559D)
T1 construct: purchased Thermo Fisher Scientific (Life Technologies) SelectScreen
Experiment: SelectScreen LanthaScreen
Type: binding
Details: read-out: % displacement
How it was run: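 NU5455 was profiled across the SelectScreen Broad panel of kinase activity and binding assays. Z'LYTE reactions such as CSF1R ran at apparent Km ATP, while the Adapta CAMK1 assay used ATP listed as 10. Values are given as percent.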

T1 sequence (P10721 26-976 V559D/T670I): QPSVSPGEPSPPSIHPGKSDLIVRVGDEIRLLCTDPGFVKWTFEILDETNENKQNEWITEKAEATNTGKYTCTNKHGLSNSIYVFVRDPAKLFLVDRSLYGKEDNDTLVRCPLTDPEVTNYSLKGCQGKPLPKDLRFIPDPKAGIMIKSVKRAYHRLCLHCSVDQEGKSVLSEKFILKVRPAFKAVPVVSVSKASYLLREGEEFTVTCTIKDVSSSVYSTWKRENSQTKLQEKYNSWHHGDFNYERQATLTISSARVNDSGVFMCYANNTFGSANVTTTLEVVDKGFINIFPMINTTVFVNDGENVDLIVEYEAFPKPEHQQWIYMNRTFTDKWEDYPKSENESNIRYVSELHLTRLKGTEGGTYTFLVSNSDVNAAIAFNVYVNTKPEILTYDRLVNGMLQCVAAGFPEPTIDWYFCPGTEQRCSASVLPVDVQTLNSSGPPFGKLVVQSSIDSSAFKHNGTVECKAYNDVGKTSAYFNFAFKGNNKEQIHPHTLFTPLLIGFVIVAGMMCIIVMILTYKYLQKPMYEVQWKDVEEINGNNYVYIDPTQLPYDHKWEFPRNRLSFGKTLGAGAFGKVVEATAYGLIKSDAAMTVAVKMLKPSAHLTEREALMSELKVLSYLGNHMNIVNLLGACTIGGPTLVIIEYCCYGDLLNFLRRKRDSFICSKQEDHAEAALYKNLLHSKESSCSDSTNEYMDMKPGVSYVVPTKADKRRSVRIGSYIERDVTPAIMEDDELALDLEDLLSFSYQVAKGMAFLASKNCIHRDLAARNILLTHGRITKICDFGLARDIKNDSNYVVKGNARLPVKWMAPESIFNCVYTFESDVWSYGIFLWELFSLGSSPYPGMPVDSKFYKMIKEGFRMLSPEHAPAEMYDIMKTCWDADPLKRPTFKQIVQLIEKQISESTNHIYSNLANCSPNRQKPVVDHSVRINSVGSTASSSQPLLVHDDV

Structure (SMILES): CN(C(=O)CN1CCOCC1)c1ccc2sc3c(-c4cccc5c(=O)cc(N6CC7CCC(C6)O7)oc45)cccc3c2c1 [NU5455]
- inhibition at 1 µM: 3.1%
